Patent US4342775A, “3-(1-Imidazolyl)-derivatives of 2,3-dihydro-4H-1-benzopyran” (Farmitalia Carlo Erba S.p.A., priority 1980, dated 1982)

Columns and labels:
[1] = test system: Icem: CER (SPF Caw) male rats fed hypercholesterolaemic diet; experiment: Experiment No. 1: serum lipids in rats fed hypercholesterolaemic diet; type: in vivo, rat; conditions: 50 mg/kg/os for 4 days, *** p < 0.01
Description: (§1) The activity of the compounds of the invention was evaluated on groups of Icem: CER (SPF Caw) male rats either fed for six days with hypercholesterolaemic diet according to C. E. Day [Schurr P. E., Schultz H. R., Day C. E. (Eds) Atherosclerosis and drug discovery--Plenum Pub. Corp., 217 (1976)] (Experiment No. 1) or fed standard diet Altromin (Experiment No. 2). "Altromin" is a trade mark.
(§2) The compounds were suspended in "Methocel" (methyl cellulose, a 0.5% suspension in water) and administered by stomach tube at the dose of 50 mg/kg for 4 days.
(§3) Groups of animals were treated with the suspending agent only (control groups).
(§4) The total serum cholesterol was determined with the method of Trinder P. J. [J. Clin. Pathol., 22, 246 (1969)].
(§5) The total serum HDL cholesterol was determined according to Demacker P. N. M. [Clin. Chem., 23, 1238, (1977)]. The total β-lipoprotein cholesterol was determined by difference between total serum cholesterol and HDL cholesterol.
Statistical analysis in experiment No. 1 was performed by the Student's test for independent samples or by the Cochran's t test when the variances were not homogeneous at the F ratio test [Bliss C. I.--Statistics in Biology, Vol. 1, page 213--Mc Graw Hill Book Company, New York, 1967; Cochran W. G., Cox G. M.--Experimental designs--J. Wiley e Sons Inc., New York, II Ed. (1968) page 100].
The Table 1 reports the values of serum total cholesterol and total HDL cholesterol and ratio between α and β lipoprotein total cholesterol from animals fed hypercholesterolaemic diet and treated with two compounds of the invention: 3-(1-imidazolyl)-2,3-dihydro-6-chloro-4H-1-benzopyran-4-one: compound A, and 3-(1-imidazolyl)-2,3-dihydro-6-chloro-4H-1-benzopyran-4-ol (trans isomer): compound B, in comparison with the values of the same variables in controls.

[2] = test system: Icem: CER (SPF Caw) male rats fed standard diet Altromin; experiment: Experiment No. 2: serum lipids in rats fed standard diet Altromin; type: in vivo, rat; conditions: 50 mg/kg/os for 4 days; for Serum HDL total cholesterol, mean ± S.E.: ** p < 0.05; for Serum triglycerides, mean ± S.E. / Total serum cholesterol, mean ± S.E. / α/β lipoprotein total cholesterol, mean: *** p < 0.01
Description: as §1, §2, §3, §4
The serum triglycerides were determined with the method of Mendez J. [J. Clin. Chem., 21, 768, (1975)].
as §5
W.--J. Amer. Stat. Ass., 50, 1096 (1955)]. Taking in account the ratio between α and β lipoprotein cholesterol it was necessary to make the variances homogeneous by a transformation of the values (√x).

[3] = test system: collagen-induced platelet aggregation; experiment: in vitro collagen-induced platelet aggregation in platelet rich plasma (method of Born); type: cell-based; conditions: final 25 mcg/ml; induced by 2 mcg/ml collagen; Guinea pig platelet rich plasma
Description: The compounds of the invention are also endowed with blood platelet-antiaggregating activity. This activity was evaluated e.g. "in vitro" on the basis of the ability of the test compounds to inhibit the collagen-induced platelet aggregation in Guinea pig platelet rich plasma according to the method of Born "Born G.V.R.--Nature, […] (1962)].

Structure (SMILES) | Serum HDL total cholesterol, mean ± S.E. [1] [mg/100 ml] | Total serum cholesterol, mean ± S.E. [1] [mg/100 ml] | α/β lipoprotein cholesterol, mean ± S.E. [1] | Serum HDL total cholesterol, mean ± S.E. [2] [mg/100 ml] | Serum triglycerides, mean ± S.E. [2] [mg/100 ml] | Total serum cholesterol, mean ± S.E. [2] [mg/100 ml] | α/β lipoprotein total cholesterol, mean [2] | inhibition of platelet aggregation [3]
O=C1c2cc(Cl)ccc2OCC1n1ccnc1 (stereo not drawn) [Compound A, 3-(1-imidazolyl)-2,3-dihydro-6-chloro-4H-1-benzopyran-4-one] | 44.3 ± 1.3 | 133.2 ± 10.1 | 0.548 ± 0.052 | 52.3 ± 2.5 | 77.2 ± 7.0 | 73.4 ± 3.0 | 1.450 | inhibit wholly
O[C@H]1c2cc(Cl)ccc2OC[C@@H]1n1ccnc1 (relative stereo) [Compound B, 3-(1-imidazolyl)-2,3-dihydro-6-chloro-4H-1-benzopyran-4-ol (trans isomer)] | 47.6 ± 2.4 | 184.4 ± 19.7 | 0.3664 ± 0.055 | 50.3 ± 1.7 | 90.6 ± 6.1 | 72.4 ± 2.3 | 1.432 | –
